What all share (assay type): biochemical
One assay addresses SULT1A1 (Homo sapiens, UniProt P50225). Briefly: SULT1A1 inhibition, 1-HP initial-rate assay. Conditions: ND = inhibition was not detected at 30 μM compound, parentheses one standard error; for inhibition: read-out: SULT1A1 Enzyme Inhibition at Saturation/%. On the procedure:
(§1) Inhibition studies. Inhibition parameters were determined under conditions identical to those described above (see, Initial-Rate Studies) except that [1-HP] was increased to 5.0 μM (˜61×Km) and inhibitor concentration was varied between 0.20-20×Ki. Ki was obtained using a least-squares fit to the following partial inhibition equation (25,28): v=kcat·(Ki+(1/kcat inh)·[I])/(Ki+[I]), where kcat inh is enzyme turnover at saturating substrates and allosteric inhibitor.
(§2) Inhibition studies. Inhibition parameters were determined under conditions identical to those described above (see, Initial-Rate Studies) except that [1-HP] was increased to 5.0 μM (˜61×Km) and inhibitor concentration was varied between 0.20-20×Ki. Ki was obtained using a least-squares fit to the following partial inhibition equation (47,50): V/Vax=(Ki+α·[I])/(Ki+[I]), where α is percentage of enzyme turnover remaining at saturating substrates and allosteric inhibitor.

Another assay has as its target SULT1A3 (Homo sapiens, UniProt P0DMM9). Briefly: SULT1A3 inhibition studies, 1-HP initial-rate fluorescence assay. Also noted: Wild-type and mutant SULT1A3 coding regions were inserted into a pGEX-6P expression vector; N-His/GST/MBP triple-tag (N, cleaved yes); made in house; host or cells: E. coli BL21(DE3); inhibition: dose or concentration left out as unconfirmed. As to conditions: for inhibition: read-out: SULT1A3 Enzyme Inhibition at Saturation/%. On the procedure:
The initial rates of SULT catalyzed 1-HP sulfonation are plotted as a function of inhibitor concentration, and are normalized relative to [inhibitor]=0. Enzyme activity was monitored by the sulfonation dependent change in 1-HP fluorescence (λex=325 nm, λem=370 nm). Less than 5% of the concentration-limiting substrate converted at the reaction endpoint was consumed during initial-rate measurements. Each point is the average of three independent determinations. Conditions: SULT (20 nM, active sites), PAPS (0.50 mM, 17×Km), 1-HP (5.0 μM, 61×Km), KPO4 (50 mM), pH 7.5, 25±2° C.
(§3) Initial-Rate Studies. Initial-rate parameters for the labeled or mutant SULT1A3 constructs were determined using a previously described 1-HP assay (25). Briefly, reactions were initiated by addition of PAPS (0.50 mM, 17×Km) to a solution containing enzyme (20 nM, active sites), 1-HP (2.0 μM, ˜24×Km), and KPO4 (50 mM), pH 7.5, 25±2° C. Reactions were monitored via fluorescence change associated with the conversion of 1-HP to 1-HP-S (λex=325 nm, λem=370 nm). Keq for the 1-HP sulfonation reaction is −250. Given the reaction conditions outlined above, ≥99% of 1-HP is converted to 1-HP-S, and ˜0.4% of PAPS is converted to PAP at equilibrium. […] Reaction progress curves were analyzed to obtain initial-rate parameters as described previously (26,27).
as §1
as §3, with “(47).” for “(25).”, “˜250.” for “−250.”, “(48,49).” for “(26,27).”
as §2

A further assay addresses Mouse (1D1) (Mus musculus, UniProt Q3UZZ6). Put plainly: Inhibition of SULT1A3 homologues in different species: Mouse. On the procedure: (§4) Compounds 12, 23 and 25 were also tested for Inhibition of SULT1A3 in different species.
(§5) Inhibition of SULT1A3 Homologues in Different Species. SULT1A3 is only expressed in humans and higher primates. SULT1D1 is the isoform expressed in dogs and rodents that sulfonates neurotransmitters and is most similar to SULT1A3. Three synthesized allosteres (12, 23, and 25) were tested against both 1A3 and 1D1 from different species in order to explore testing in animal models. […] Mice have been engineered such that their SULT1A1/2 enzymes have been knocked out and replaced with the human versions of those isoforms.

Another assay concerns the target Green Monkey (1A3) (Chlorocebus sabaeus, UniProt Z9LO20H8W3). Put plainly: Inhibition of SULT1A3 homologues in different species: Green Monkey. Here is the method: as §4, §5
The next assay deals with T1, Rat (1D1) (Rattus norvegicus, UniProt G3V9R3).
T1 sequence (G3V9R3 1-295): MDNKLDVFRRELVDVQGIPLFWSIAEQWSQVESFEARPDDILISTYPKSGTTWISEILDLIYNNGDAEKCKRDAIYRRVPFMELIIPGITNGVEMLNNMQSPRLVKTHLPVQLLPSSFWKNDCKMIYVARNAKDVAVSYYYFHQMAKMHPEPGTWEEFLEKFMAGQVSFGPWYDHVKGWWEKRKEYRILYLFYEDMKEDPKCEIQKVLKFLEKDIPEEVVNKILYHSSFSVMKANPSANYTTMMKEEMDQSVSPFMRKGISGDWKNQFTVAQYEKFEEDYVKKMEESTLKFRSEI
Put plainly: Inhibition of SULT1A3 homologues in different species: Rat. On the procedure: as §4, §5

The target of a further assay is Dog (1D1) (Canis lupus familiaris, UniProt A0A8I3RXJ1). Put plainly: Inhibition of SULT1A3 homologues in different species: Dog. Here is the method:
as §5, with “Compounds 12, 23 and 25 were also tested for Inhibition of SULT1A3 in different species. Inhibition” for “Inhibition”

Another assay deals with Rhesus Macaque (1A3) (Macaca mulatta, UniProt A0A5F7ZQH3). Put plainly: Inhibition of SULT1A3 homologues in different species: Rhesus Macaque. On the procedure:
as §4, §5

The mark [1] stands for this setting: ND = inhibition was not detected at 30 μM compound, parentheses one standard error, read-out: SULT1A3 Ki/μM.

Read-outs that look alike come from different tables or passages of the source.

Chain of SULT1A1 (P50225 whole entry): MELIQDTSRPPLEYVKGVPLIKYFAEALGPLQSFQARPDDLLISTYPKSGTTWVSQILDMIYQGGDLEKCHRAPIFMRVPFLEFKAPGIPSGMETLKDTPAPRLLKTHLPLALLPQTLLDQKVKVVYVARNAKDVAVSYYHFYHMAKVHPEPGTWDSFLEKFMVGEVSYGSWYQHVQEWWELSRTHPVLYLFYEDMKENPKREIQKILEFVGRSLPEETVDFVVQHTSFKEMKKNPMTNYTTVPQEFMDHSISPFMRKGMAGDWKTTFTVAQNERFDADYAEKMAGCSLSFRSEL
Chain of SULT1A3 (P0DMM9 whole entry): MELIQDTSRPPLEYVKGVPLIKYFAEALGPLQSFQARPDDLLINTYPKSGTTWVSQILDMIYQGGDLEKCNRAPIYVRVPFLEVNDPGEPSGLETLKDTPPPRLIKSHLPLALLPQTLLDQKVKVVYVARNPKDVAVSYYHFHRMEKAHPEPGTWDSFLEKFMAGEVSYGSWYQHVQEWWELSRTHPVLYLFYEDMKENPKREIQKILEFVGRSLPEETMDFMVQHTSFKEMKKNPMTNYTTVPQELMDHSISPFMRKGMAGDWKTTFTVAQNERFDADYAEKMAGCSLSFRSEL
Chain of Mouse (1D1) (Q3UZZ6 whole entry, canonical isoform): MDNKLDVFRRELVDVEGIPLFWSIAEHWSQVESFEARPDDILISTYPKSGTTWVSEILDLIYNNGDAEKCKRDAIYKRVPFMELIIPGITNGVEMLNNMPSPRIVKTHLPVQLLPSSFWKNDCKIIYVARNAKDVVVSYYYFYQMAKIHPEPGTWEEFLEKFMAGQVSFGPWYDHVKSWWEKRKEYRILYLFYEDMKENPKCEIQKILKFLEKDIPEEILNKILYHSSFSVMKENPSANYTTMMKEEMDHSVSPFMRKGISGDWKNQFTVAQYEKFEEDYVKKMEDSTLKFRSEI
Chain of Green Monkey (1A3) (Z9LO20H8W3 1-295): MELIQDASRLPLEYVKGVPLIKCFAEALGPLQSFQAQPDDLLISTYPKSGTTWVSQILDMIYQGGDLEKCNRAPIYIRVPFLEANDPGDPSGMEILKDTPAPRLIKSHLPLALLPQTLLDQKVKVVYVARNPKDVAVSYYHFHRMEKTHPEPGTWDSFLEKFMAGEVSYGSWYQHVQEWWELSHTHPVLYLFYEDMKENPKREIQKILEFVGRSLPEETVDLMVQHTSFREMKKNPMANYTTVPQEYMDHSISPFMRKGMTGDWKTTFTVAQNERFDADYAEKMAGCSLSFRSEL
Chain of Rhesus Macaque (1A3) (A0A5F7ZQH3 1-295): as the sequence (Z9LO20H8W3 1-295) above, with A7T, V15M, C23Y, R230K, Y247F, A278E counted along it
Chain of Dog (1D1) (A0A8I3RXJ1 entry or part of it): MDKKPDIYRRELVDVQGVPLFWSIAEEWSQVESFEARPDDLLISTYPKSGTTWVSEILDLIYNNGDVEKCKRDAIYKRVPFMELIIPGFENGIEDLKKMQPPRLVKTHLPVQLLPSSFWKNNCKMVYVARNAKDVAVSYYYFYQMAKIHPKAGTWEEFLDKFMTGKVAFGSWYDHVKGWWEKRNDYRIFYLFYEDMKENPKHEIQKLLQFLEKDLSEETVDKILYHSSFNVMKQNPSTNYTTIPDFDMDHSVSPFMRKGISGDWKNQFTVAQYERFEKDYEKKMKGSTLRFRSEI

With `COCc1ccc2nc(CC(C)C)ccc2c1` [Compound 3, 2-Isobutyl-6-(methoxymethyl)quinolone], the figures for the Ki on SULT1A1 and at SULT1A3 (setting [1]) were 5.7 µM and 6.1 µM, respectively. Moreover, the inhibition on SULT1A1 and at SULT1A3 (parentheses one standard error) was 10% each time.

In the case of `Cc1nc2ccc(CO)cc2cc1CC(C)C` [Compound 4], at SULT1A1, the Ki was 7.7 µM and the inhibition came to 20%. At SULT1A3 (setting [1]), the Ki amounted to 7.5 µM.

For `CCCn1cc(-c2ccc3ncccc3c2)nn1` [Compound 5, 6-(1-Propyl-1H-1,2,3-triazol-4-yl)quinoline], the Ki at SULT1A1 amounted to 4.7 µM; on SULT1A3 (setting [1]), 3.1 µM. Besides, the inhibition amounted to 53% at SULT1A1 and 33% on SULT1A3 (parentheses one standard error).

In the case of `COC(=O)c1ccc2nc3c(cc2c1)C(=O)CC(C)C3` (stereo not shown) [Compound 6, Methyl 6-methyl-8-oxo-5,6,7,8-tetrahydroacridine-2-carboxylate], the Ki on SULT1A3 (setting [1]) worked out at 0.66 µM. Further, the inhibition at SULT1A3 (parentheses one standard error) is 35%.

As for `CCCCNC(=O)c1ccc2nc(CC(C)C)ccc2c1` [Compound 7, N-Butyl-2-isobutylquinoline-6-carboxamide], the Ki at SULT1A1 is 5.1 µM; at SULT1A3 (setting [1]), 1.3 µM. Also, the results for the inhibition at SULT1A1 and on SULT1A3 (parentheses one standard error) were 67% and 51%, respectively.

For `CCOC(=O)CCc1ccc2cc(CCC(N)=O)ccc2n1` [Compound 9, Ethyl 3-(6-(3-amino-3-oxopropyl)quinolin-2-yl)propanoate], at SULT1A3 (setting [1]), the Ki came to 0.33 µM. In addition, at SULT1A3 (parentheses one standard error), the inhibition is 63%.

As for `O=C(O)/C=C/c1ccc2ncccc2c1` [Compound 10, (E)-3-(quinolin-6-yl)acrylic acid], the Ki worked out at 22 µM at SULT1A1 and 4.1 µM at SULT1A3 (setting [1]). Besides, the inhibition was determined as 30% at SULT1A1 and 72% at SULT1A3 (parentheses one standard error).

Regarding `CC(C)Cc1ccc2cc(C(N)=O)ccc2n1` [Compound 11, 2-Isobutylquinoline-6-carboxamide], the Ki at SULT1A3 (setting [1]) was 0.86 µM. In addition, the inhibition on SULT1A3 (parentheses one standard error) came out at 78%.

With `CC(C)Cc1ccc2cc(/C=C/C(N)=O)ccc2n1` [Compound 13, (E)-3-(2-Isobutylquinolin-6-yl)acrylamide], the values for the Ki at SULT1A1 and on SULT1A3 (setting [1]) were 6.2 µM and 0.19 µM, respectively. The inhibition at SULT1A1 is 48%; at SULT1A3 (parentheses one standard error), 65%.

Take `CC(C)(C)Cc1ccc2cc(CO)ccc2n1` [Compound 18]: on SULT1A1, the Ki was 2.5 µM and the inhibition was determined as 40%.

As for `CCCn1cc(-c2ccc3ccc(O)cc3c2)nn1` [Compound 20], the figures for the Ki at SULT1A1 and at SULT1A3 (setting [1]) were 12.1 µM and 2.6 µM, respectively. The inhibition on SULT1A1 stood at 17%; on SULT1A3 (parentheses one standard error), 16%.

For `CC(C)Cc1ccc2cc(/C=C/C(=O)O)cnc2n1` [Compound 24, (E)-3-(7-Isobutylnaphthyridin-3-yl)acrylic acid], the Ki on SULT1A3 (setting [1]) stood at 3.1 µM. Further, the inhibition at SULT1A3 (parentheses one standard error) was 29.4%.

For `CC(C)Cc1ccc2cc(CCC(N)=O)cnc2n1` [Compound 25], the “Mouse (1D1) % inh” value on Mouse (1D1) was 91 (2) %. Further, the Ki stood at 32 nM at Mouse (1D1) (parentheses one standard error); 87 nM on Green Monkey (1A3) (parentheses one standard error); 0.017 µM on SULT1A3 (setting [1]); 0.017 µM on SULT1A3 (standard error in neighbouring cell, read-out: Human (1A3) Ki); 1100 nM at Rat (1D1) (parentheses one standard error); 52 nM on Dog (1D1) (standard error in neighbouring cell). Besides, the Ki at Rhesus Macaque (1A3) (parentheses one standard error) came out at 25 nM. Further, at Green Monkey (1A3), the “Green Monkey (1A3) % inh” value is 72 (5) %. For the same compound, the “Human (1A3) % inh” value on SULT1A3 (parentheses one standard error) is listed as 90 (3) %. At SULT1A3 (parentheses one standard error), the inhibition was found to be 90%. In addition, at Rat (1D1), the “Rat (1D1) % inh” value is listed as 21 (3) %. Besides, on Dog (1D1), the “Dog (1D1) % inh” value is listed as 73 (4) %. The “Rhesus Macaque (1A3) % inh” value at Rhesus Macaque (1A3) is reported as 95 (2) %.

Take `CC1CC(=O)c2cc3cc(C(N)=O)ccc3nc2C1` (stereo not shown) [Compound 27, 6-Methyl-8-oxo-5,6,7,8-tetrahydroacridine-2-carboxamide]: at SULT1A3 (setting [1]), the Ki was 0.11 µM. Moreover, the inhibition at SULT1A3 (parentheses one standard error) stood at 75%.

For the compound `CC1Cc2nc3ccc(C(N)=O)cc3cc2C(O)C1` (stereo not shown) [Compound 28, 8-Hydroxy-6-methyl-5,6,7,8-tetrahydroacridine-2-carboxamide], the Ki at SULT1A3 (setting [1]) was found to be 0.085 µM. On SULT1A3 (parentheses one standard error), the inhibition was 52%.

Source of the values: US12291504B2 (University of Pittsburgh—Of the Commonwealth System of …, priority 2018, dated 2025).
